# In ChEMBL document CHEMBL5576084, “Development of chromone-thiazolidine-2,4-dione Knoevenagel conjugates as apoptosis inducing agents” (Bioorg Med Chem Lett, 2024):
# Assays:
# A549 = experiment: Cytotoxicity against human A549 cells assessed as inhibition of cell growth incubated for 48 hrs by MTT assay; format: functional, cell-based; details: A549, 48 h
# MCF7 = experiment: Cytotoxicity against human MCF7 cells assessed as inhibition of cell growth incubated for 48 hrs by MTT assay; format: functional, cell-based; details: MCF7, 48 h
# [1] = Cytotoxicity against HEK293 cells assessed as inhibition of cell growth incubated for 48 hrs by MTT assay; format: toxicity, cell-based; details: human
# SK-MEL-28 = experiment: Cytotoxicity against human SK-MEL-28 cells assessed as inhibition of cell growth incubated for 48 hrs by MTT assay; format: functional, cell-based; details: SK-MEL-28, 48 h
# HCT-116 = experiment: Cytotoxicity against human HCT-116 cells assessed as inhibition of cell growth incubated for 48 hrs by MTT assay; format: functional, cell-based; details: HCT-116, 48 h
# HepG2 = experiment: Cytotoxicity against human HepG2 cells assessed as inhibition of cell growth incubated for 48 hrs by MTT assay; format: functional, cell-based; details: HepG2, 48 h
Structure (SMILES),IC50 (A549) [µM],IC50 (MCF7) [µM],IC50 at 48 h [1] [µM],IC50 (SK-MEL-28) [µM],IC50 (HCT-116) [µM],IC50 (HepG2) [µM]
O=C(CN1C(=O)S/C(=C\c2coc3cc(Br)ccc3c2=O)C1=O)c1ccc(Cl)cc1,8.4,> 10,18.1,> 10,> 10,> 10
Cc1ccc2occ(/C=C3\SC(=O)N(CC(=O)c4ccc(F)cc4)C3=O)c(=O)c2c1,> 10,> 10,15.2,> 10,> 10,> 10
Cc1ccc(C(=O)CN2C(=O)S/C(=C\c3coc4cc(Br)ccc4c3=O)C2=O)cc1,6.5,10.1,15.1,> 10,> 10,> 10
O=C(CN1C(=O)S/C(=C\c2coc3cc(Br)ccc3c2=O)C1=O)c1ccc(Br)cc1,> 10,> 10,23.6,> 10,> 10,> 10
N#Cc1ccc(C(=O)CN2C(=O)S/C(=C\c3coc4ccccc4c3=O)C2=O)cc1,8.8,> 10,27.8,> 10,> 10,> 10
O=C(CN1C(=O)S/C(=C\c2coc3cc(Br)ccc3c2=O)C1=O)c1ccccc1,8.8,> 10,21.1,> 10,> 10,> 10
Cc1ccc(C(=O)CN2C(=O)S/C(=C\c3coc4cc(F)ccc4c3=O)C2=O)cc1,> 10,> 10,16.6,> 10,> 10,> 10
O=C(CN1C(=O)S/C(=C\c2coc3ccccc3c2=O)C1=O)c1ccc(Br)cc1,7.8,> 10,21.1,> 10,> 10,> 10
Cc1ccc2occ(/C=C3\SC(=O)N(CC(=O)c4ccccc4)C3=O)c(=O)c2c1,> 10,> 10,13.6,> 10,> 10,> 10
O=C(CN1C(=O)S/C(=C\c2coc3ccccc3c2=O)C1=O)c1ccccc1,> 10,> 10,17.5,> 10,> 10,> 10
O=C(CN1C(=O)S/C(=C\c2coc3ccccc3c2=O)C1=O)c1ccc(Cl)cc1,> 10,8.7,25,> 10,> 10,12.3
Cc1ccc(C(=O)CN2C(=O)S/C(=C\c3coc4ccccc4c3=O)C2=O)cc1,8.7,> 10,28.2,> 10,> 10,> 10
O=C(CN1C(=O)S/C(=C\c2coc3ccc(Br)cc3c2=O)C1=O)c1ccccc1,> 10,> 10,13.2,> 10,> 10,> 10
Cc1ccc(C(=O)CN2C(=O)S/C(=C\c3coc4ccc(C)cc4c3=O)C2=O)cc1,8.2,> 10,14.1,> 10,> 10,> 10
O=C(CN1C(=O)S/C(=C\c2coc3cc(F)ccc3c2=O)C1=O)c1ccc(Cl)cc1,> 10,> 10,13.4,> 10,> 10,> 10
O=C(CN1C(=O)S/C(=C\c2coc3ccccc3c2=O)C1=O)c1ccc(F)cc1,8.2,> 10,15.5,> 10,> 10,> 10
Cc1ccc2occ(/C=C3\SC(=O)N(CC(=O)c4ccc(Br)cc4)C3=O)c(=O)c2c1,> 10,> 10,16.5,9.1,> 10,> 10
